Patent US20050090529A1, “3,5 Disubstituted indazole compounds with nitrogen-bearing 5-membered heterocycles, pharmaceutical compositions, and methods for mediating or inhibiting cell proliferation” (PFIZER INC, priority 2003, published 2005)

The compounds below were run on Cyclin-dependent kinase (assay: Cyclin-dependent kinase inhibition, % inhibition at 10 nM (library Examples 99-270)). Conditions: 10 nM compound.
Type: biochemical
Method in brief: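 Enzyme starts the reaction at 30° C, which runs 20 min with 25 μM [³²P/³³P]ATP and protein substrate (pH 7.4, 10 mM MgCl2, 2% DMSO). After EDTA quench, membrane-bound labelled substrate is read by phosphorimaging following acid washes.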

Going from `C=CCN(CC=C)CCN1CCN(C(=O)c2cnc(-c3n[nH]c4ccc(-c5cncc(CNCC)c5C)cc34)[nH]2)CC1` [Example 146, diallyl[2-(4-{[2-(5-{5-[(ethylamino)methyl]-4.-methylpyridin-3-yl}-1H-indazol-3-yl)-1H-imidazol-5-yl]carbonyl}piperazin-1-yl)ethyl]amine] to `CCNCc1cncc(-c2ccc3[nH]nc(-c4ncc(C(=O)N5CCCN(C)CC5)[nH]4)c3c2)c1C` [Example 119, ethyl{(4-methyl-5-(3-{5-[(4-methyl-1,4-diazepan-1-yl)carbonyl]-1H-imidazol-2-yl}-1H-indazol-5-yl)pyridin-3-yl]methyl}amine], the “% Inhib @ 10 nM” value rises from 22% to 38%.

Going from `CCNCc1cncc(-c2ccc3[nH]nc(-c4ncc(C(=O)N5CCC(C(=O)c6ccc(F)cc6)CC5)[nH]4)c3c2)c1C` [Example 142, (1-{[2-(5-{5-[(ethylamino)methyl]-4-methylpyridin-3-yl}-1H-indazol-3-yl)-1H-imidazol-5-yl]carbonyl}piperidin-4-yl)(4-fluorophenyl)methanone] to `CCNCc1cncc(-c2ccc3[nH]nc(-c4ncc(C(=O)N5CCC(Cc6cccc(CO)c6)CC5)[nH]4)c3c2)c1C` [Example 262, (3-[(1-{[2-(5-{5-[(ethylamino)methyl]-4-methylpyridin-3-yl}-1H-indazol-3-yl)-1H-imidazol-5-yl]carbonyl}piperidin-4-yl)methyl]phenyl}methanol], the “% Inhib @ 10 nM” value falls from 65% to 59%.

Compared with `CCNCc1cncc(-c2ccc3[nH]nc(-c4ncc(C(=O)NCc5cc6cc[nH]c6cn5)[nH]4)c3c2)c1C` [Example 215], `CCNCc1cncc(-c2ccc3[nH]nc(-c4ncc(C(=O)NCc5ccc(C(F)(F)F)nc5)[nH]4)c3c2)c1C` [Example 188, 2-(5-{5-[(ethylamino)methyl]-4-methylpyridin-3-yl}-1H-indazol-3-yl)-N-{(6-(trifluoromethyl)pyridin-3-yl]methyl}-1H-imidazole-5-carboxamide] is lower in “% Inhib @ 10 nM” value: 72% for the first, 41% for the second.

First: CCNCc1cncc(-c2ccc3[nH]nc(-c4ncc(C(=O)NCCC#N)[nH]4)c3c2)c1C [Example 154, N-(2-cyanoethyl)-2-(5-{5-[(ethylamino)methyl]-4-methylpyridin-3-yl}-1H-indazxol-3-yl)-1H-imidazole-5-carboxamide]
Second: CCNCc1cncc(-c2ccc3[nH]nc(-c4ncc(C(=O)NC)[nH]4)c3c2)c1C [Example 151, 2-(5-{5-[(ethylamino)methyl]-4-methylpyridin-3-yl}-1H-indazol-3-yl)-N-methyl-1H-imidazole-5-carboxamide]
The “% Inhib @ 10 nM” value of the first is higher: 71% for the first, 67% for the second.

First: CCNCc1cncc(-c2ccc3[nH]nc(-c4ncc(C(=O)N5CCNC(=O)CC5)[nH]4)c3c2)c1C [Example 231, 1-{[2-(5-{5-[(ethylamino)methyl]-4-methylpyridin-3-yl}-1H-indazol-3-yl)-1H-imidazol-5-yl]carbonyl}-1,4-diazepan-5-one]
Second: CCNCc1cncc(-c2ccc3[nH]nc(-c4ncc(C(=O)N5CCN(c6ccncc6)CC5)[nH]4)c3c2)c1C [Example 144, ethyl{[4-methyl-5-(3-{5-[(4-pyridin-4-ylpiperazin-1-yl)carbonyl]-1H-imidazol-2-yl}-1H-indazol-5-yl)pyridin-3-yl]methyl}amine]
The “% Inhib @ 10 nM” value of the first is higher: 67% for the first, 30% for the second.

Going from `CCNCc1cncc(-c2ccc3[nH]nc(-c4ncc(C(=O)NC/C=C(\C)CCC=C(C)C)[nH]4)c3c2)c1C` [Example 157] to `CCNCc1cncc(-c2ccc3[nH]nc(-c4ncc(C(=O)NCC(N)=O)[nH]4)c3c2)c1C` [Example 109, N-(2-amino-2-oxoethyl)-2-(5-{5-[(ethylamino)methyl]-4-methylpyridin-3-yl}-1H-indazol-3-yl)-1H-imidazole-5-carboxamide], the “% Inhib @ 10 nM” value rises from 28% to 69%.

Going from `CCNCc1cncc(-c2ccc3[nH]nc(-c4ncc(C(=O)NCc5ccc(C(=O)OC)cc5)[nH]4)c3c2)c1C` [Example 194, methyl-4-[({[2-(5-{5-[(ethylamino)methyl]-4-methylpyridin-3-yl}-1H-indazol-3-yl)-1H-imidazol-5-yl]carbonyl}amino)methyl]benzoate] to `CCNCc1cncc(-c2ccc3[nH]nc(-c4ncc(C(=O)NCc5ccc(F)c(C(F)(F)F)c5)[nH]4)c3c2)c1C` [Example 148], the “% Inhib @ 10 nM” value falls from 65% to 60%.

Going from `CCNCc1cncc(-c2ccc3[nH]nc(-c4ncc(C(=O)NCCN(C)CCCCCO)[nH]4)c3c2)c1C` [Example 199, 2-(5-{5-[(ethylamino)methyl]-4-methylpyridin-3-yl}-1H-indazol-3-yl)-N-{2-[(5-hydroxypentyl)(methyl)amino]ethyl}-1H-imidazole-5-carboxamide] to `CCNCc1cncc(-c2ccc3[nH]nc(-c4ncc(C(=O)N(C)C)[nH]4)c3c2)c1C` [Example 190, 2-(5-{5-[(ethylamino)methyl}-4-methylpyridin-3-yl}-1H-indazol-3-yl)-N,N-dimethyl-1H-imidazole-5-carboxamide], the “% Inhib @ 10 nM” value rises from 25% to 76%.

Compared with `CCNCc1cncc(-c2ccc3[nH]nc(-c4ncc(C(=O)N5CCN(c6cccc7ccccc67)CC5)[nH]4)c3c2)c1C` [Example 236, ethyl({4-methyl-5-[3-(5-{[4-(1-naphthyl)piperazin-1-yl]carbonyl}-1H-imidazol-2-yl)-1H-indazol-5-yl]pyridin-3-yl}methyl)amine], `CCNCc1cncc(-c2ccc3[nH]nc(-c4ncc(C(=O)N5CCN(Cc6ccccc6)CC5)[nH]4)c3c2)c1C` [Example 117] is lower in “% Inhib @ 10 nM” value: 74% for the first, 72% for the second.

First: CCNCc1cncc(-c2ccc3[nH]nc(-c4ncc(C(=O)N5CCC(C#N)(c6ccccc6)CC5)[nH]4)c3c2)c1C [Example 113, 1-{[2-(5-{5-[(ethylamino)methyl]-4-methylpyridin-3-yl}-1H-indazol-3-yl)-1H-imidazol-5-yl]carbonyl}-4-phenylpiperidine-4-carbonitrile]
Second: CCNCc1cncc(-c2ccc3[nH]nc(-c4ncc(C(=O)N5CCC(O)(c6ccccc6)CC5)[nH]4)c3c2)c1C [Example 112, 1-{[2-(5-{5-[(ethylamino)methyl]-4-methylpyridin-3-yl}-1H-indazol-3-yl)-1H-imidazol-5-yl]carbonyl}-4-phenylpiperidin-4-ol]
The “% Inhib @ 10 nM” value of the first is lower: 61% for the first, 80% for the second.

First: CCNCc1cncc(-c2ccc3[nH]nc(-c4ncc(C(=O)N5CCC(c6nnc(C7CC7)o6)CC5)[nH]4)c3c2)c1C [Example 256, ({5-[3-(5-[[4-(5-cyclopropyl-1,3,4-oxadiazol-2-yl)piperidin-1-yl]carbonyl}-1H-imidazol-2-yl)-1H-indazol-5-yl]-4-methylpyridin-3-yl}methyl)ethylamine]
Second: CCNCc1cncc(-c2ccc3[nH]nc(-c4ncc(C(=O)N5CCC(c6ccnc(NCC)n6)CC5)[nH]4)c3c2)c1C [Example 252, N-ethyl-4-(1-{[2-(5-{5-[(ethylamino)methyl]-4-methylpyridin-3-yl}-1H-indazol-3-yl)-1H-imidazol-5-yl]carbonyl}piperidin-4-yl)pyrimidin-2-amine]
The “% Inhib @ 10 nM” value of the first is higher: 46% for the first, 41% for the second.

Compared with `CCNCc1cncc(-c2ccc3[nH]nc(-c4ncc(C(=O)N(CC#N)Cc5ccccc5)[nH]4)c3c2)c1C` [Example 213, N-benzyl-N-(cyanomethyl)-2-(5-{5-[(ethylamino)methyl]-4-methylpyridin-3-yl}-1H-indazol-3-yl)-1H-imidazale-5-carboxamide], `CCNCc1cncc(-c2ccc3[nH]nc(-c4ncc(C(=O)N(CCO)Cc5ccccc5)[nH]4)c3c2)c1C` [Example 124, N-benzyl-2-(5-{5-[(ethylamino)methyl]-4-methylpyridin-3-yl}-1H-indazol-3-yl)-N-(2-hydroxyethyl)-1H-imidazole-5-carboxamide] is lower in “% Inhib @ 10 nM” value: 68% for the first, 56% for the second.

Going from `CCNCc1cncc(-c2ccc3[nH]nc(-c4ncc(C(=O)NCCCn5ccnc5)[nH]4)c3c2)c1C` [Example 99, 2-(5-{5-[(ethylamino)methy]-4-methylpyridin-3-yl}-1H-indazol-3-yl)-N-[3-(1H-imidazol-1-yL)propyl]-1H-imidazole-5-carboxamide] to `CCNCc1cncc(-c2ccc3[nH]nc(-c4ncc(C(=O)NCC5CCCCC5)[nH]4)c3c2)c1C` [Example 166, N-(cyclohexylmethyl)-2-(5-{5-[(ethylamino)methyl]-4-methylpyridin-3-yl}-1H-indazol-3-yl)-1H-imidazole-5-carboxamide], the “% Inhib @ 10 nM” value rises from 39% to 73%.

Compared with `CCNCc1cncc(-c2ccc3[nH]nc(-c4ncc(C(=O)N[C@H](CO)Cc5c[nH]c6ccccc56)[nH]4)c3c2)c1C` [Example 140, 2-(5-{5-[(ethylamino)methyl]-4-methylpyridin-3-yl}-1H-indazol-3-yl)-N-[(1S)-2-hydroxy-1-(1H-indol-3-ylmethyl)ethyl]-1 H-imidazole-5-carboxamide], `CCNCc1cncc(-c2ccc3[nH]nc(-c4ncc(C(=O)NC5Cc6ccccc6C5)[nH]4)c3c2)c1C` [Example 158, N-(2,3-dihydro-1H-inden-2-yl)-2-(5-{5-[(ethylamino)methyl]-4-methylpyridin-3-yl}-1H-indazol-3-yl)-1H-imidazole-5-carboxamide] is higher in “% Inhib @ 10 nM” value: 31% for the first, 56% for the second.

Going from `CCNCc1cncc(-c2ccc3[nH]nc(-c4ncc(C(=O)NC5(CO)CCCC5)[nH]4)c3c2)c1C` [Example 139, 2-(5-{5-[(ethylamino)methyl]-4-methylpyridin-3-yl}-1H-indazol-3-yl)-N-[1-(hydroxymethyl)cyclopentyl]-1H-imidazole-5-carboxamide] to `CCNCc1cncc(-c2ccc3[nH]nc(-c4ncc(C(=O)N5CCN(CC6CCCO6)CC5)[nH]4)c3c2)c1C` (centres unmarked) [Example 229, ethyl({4-methyl-5-[3-(5-{[4-(tetrahydrofuran-2-ylmethyl)piperazin-1-yl]carbonyl}-1H-imidazol-2-yl)-1H-indazol-5-yl]pyridin-3-yl}methyl)amine], the “% Inhib @ 10 nM” value falls from 64% to 33%.

Going from `CCNCc1cncc(-c2ccc3[nH]nc(-c4ncc(C(=O)N5CCN(c6ncccc6C#N)CC5)[nH]4)c3c2)c1C` [Example 226] to `CCNCc1cncc(-c2ccc3[nH]nc(-c4ncc(C(=O)NCCc5cc(OC)c(O)c(OC)c5)[nH]4)c3c2)c1C` [Example 167], the “% Inhib @ 10 nM” value falls from 62% to 28%.
